Assay results from US20220280473A1, “COMPOSITIONS AND METHODS FOR MODULATING EPITHELIAL-MESENCHYMAL TRANSITION” (AUCKLAND UNISERVICES LIMITED, priority 2021, published 2022).
Entries after “also recorded” stand apart in the source; their conditions may differ.

Legend:
Type in all cases: cell-based, Human
ARPE-19 cells [1] = test: RPE65 expression by quantitative immunocytochemistry after HG+Cyt insult
Procedure: (§1) Human adult retinal pigment epithelial cells (ARPE-19; American Type Culture Collection, USA) were cultured in Dulbecco's modified Eagle medium F-12 (DMEM-F12; Thermofisher Scientific Inc., USA) supplemented with 10% foetal bovine serum ([…]: Invitrogen, USA) and a 1× antibiotics and antimycotics mixture (AA, 100× stock) at 37° C. in a humidified 5% CO2 incubator. Cells were grown in T75 flasks, and the medium was changed twice per week until confluent.
(§2) At passages 15-18, cells were plated at 2.5×10^5 cells/mL in 8-well chamber slides for immunohistochemical studies, 6-well plates with inserts for fluorescein isothiocyanate (FITC)-dextran dye leak and transepithelial electrical resistance (TEER) measurements, and 24-well plates for cell migration studies. Once confluent, cells were treated as three separate groups: untreated, insult of HG+Cyt, or HG+Cyt insult plus tonabersat treatment (HG+Cyt+Ton). […]
(§3) Fluorescence images were taken on an Olympus FV1000 confocal laser scanning microscope (Olympus, Japan), and processed using Olympus FV10-ASW viewer and ImageJ software (Version 1.52a, National Institute of Health, USA). […] RPE65 and α-SMA expression was quantified by measuring the mean fluorescence intensity (MFI). […] The ratio of α-SMA to RPE65 expression was additionally calculated by (α-SMA MFI/RPE65 MFI). ZO-1 was qualitatively assessed for changes in localisation.

ARPE-19 cells [2] = test: α-SMA expression by quantitative immunocytochemistry after HG+Cyt insult; conditions: for α-SMA to RPE65 expression ratio / α-SMA expression (mean fluorescence intensity, compared to untreated levels): ARPE-19, HG+Cyt insult plus tonabersat 100 μM; for α-SMA to RPE65 expression ratio: α-SMA MFI/RPE65 MFI
Procedure: as §1
(§4) At passages 15-18, cells were plated at 2.5×10^5 cells/mL in 8-well chamber slides for immunohistochemical studies, 6-well plates with inserts for fluorescein isothiocyanate (FITC)-dextran dye leak and transepithelial electrical resistance (TEER) measurements, and 24-well plates for cell migration studies. Once confluent, cells were treated as three separate groups: untreated, insult of HG+Cyt, or HG+Cyt insult plus tonabersat treatment (HG+Cyt+Ton). The insult of HG+Cyt was used to induce DR-like conditions as has been previously described (Kuo et al., 2020; Mugisho et al., 2018a, 2018b), and consisted of a combination of 32.5 mM HG and the pro-inflammatory cytokines; tumour necrosis factor alpha (TNF-α; 10 ng/mL; Peprotech, USA) and interleukin-1 beta (IL-1β; 10 ng/mL; Peprotech, USA).
(§5) Tonabersat (MedChemExpress, NJ, USA) was administered at a concentration of 100 μM to cells at the same time as the HG+Cyt insult (HG+Cyt+Ton). To achieve this tonabersat was dissolved in 100% DMSO at a concentration of 100 mM and then 1 μl of the stock solution was added to 999 μl of culture medium containing HG+Cyt. Cells were incubated under treatment conditions for 72 h unless otherwise stated. Brightfield images were taken using a light microscope at 24, 48, and 72 h post-treatment. All experiments were repeated thrice.
Cells were fixed with 4% paraformaldehyde for 10 min and permeabilized with 0.1% Triton X-100 in phosphate-buffered saline (PBS) for 10 min. Cells were blocked in normal goat or horse serum for 1 h, and then incubated overnight at 4° C. with either mouse anti-RPE65 (1:1000; Abcam, UK) and goat anti-α-SMA (1:200; Abcam, UK), or rabbit anti-ZO-1 (1:1000; Invitrogen, USA). Two 10 min washes followed in PBS, after which cells were incubated at room temperature for 2 h with their respective secondary antibodies; donkey anti-rabbit Alexa-488 (1:500; Abcam, UK), donkey anti-mouse Alexa-488 (1:500; Abcam, UK) or donkey anti-goat Cy3 (1:500; Invitrogen, USA). Cells were washed in PBS twice for 10 min. Cell nuclei were stained with DAPI (1:1000; Sigma-Aldrich, USA), and slides were mounted using Citifluor™ anti-fade reagent and sealed with nail varnish.
Fluorescence images were taken on an Olympus FV1000 confocal laser scanning microscope (Olympus, Japan), and processed using Olympus FV10-ASW viewer and ImageJ software (Version 1.52a, National Institute of Health, USA). Five images were taken from a single chamber per condition and repeated in three separate experiments. RPE65 and α-SMA expression was quantified by measuring the mean fluorescence intensity (MFI). Data is presented relative to the respective untreated group. The ratio of α-SMA to RPE65 expression was additionally calculated by (α-SMA MFI/RPE65 MFI). ZO-1 was qualitatively assessed for changes in localisation.

ARPE-19 cells [3] = test: Cell migration (scrape wound) assay after HG+Cyt insult; conditions: ARPE-19, HG+Cyt plus tonabersat 100 μM
Procedure: as §1, §4
Tonabersat (MedChemExpress, NJ, USA) was administered at a concentration of 100 μM to cells at the same time as the HG+Cyt insult (HG+Cyt+Ton). […]
To determine cell migration rates following 72 h treatment, a scrape wound was created in the cell monolayer by drawing a 1000 μL pipette tip vertically over the cells by hand, and the width of the wound measured over time. […] The width of the scrape was measured with the line tool and “measure” feature in ImageJ at eight regular intervals (guided using a grid overlay) within each image. […] The scrape wound width was quantified relative to the post-scrape width at time 0 h and converted to a percentage scrape closure for each condition. […]

ARPE-19 cells [4] = test: ZO-1 tight junction localisation, immunocytochemistry; conditions: ARPE-19, HG+Cyt insult plus tonabersat 100 μM, qualitative
Procedure: as §1, §2, §3

ARPE-19 cells [5] = test: Cx43 cell membrane localization, immunolabelling; conditions: ARPE-19, HG+Cyt insult plus tonabersat, qualitative
ARPE-19 cells [6] = test: Transepithelial electrical resistance (TEER) of cell monolayer; conditions: ARPE-19 monolayer, HG+Cyt plus tonabersat 100 μM
Procedure: as §1, §4, §5
To determine the effect of conditions on the TEER of the cell monolayer, cells were again seeded into the inserts of 6-well Transwell® plates (Corning Incorporated, USA), with additional medium in the base. […] TEER values were quantified relative to the 0 h values for each respective group. […]

ARPE-19 cells [7] = test: TGF-β1 and TGF-β2 release after HG+Cyt insult; conditions: HG+Cyt insult plus tonabersat

CC(=O)c1ccc2c(c1)[C@H](NC(=O)c1ccc(F)c(Cl)c1)[C@H](O)C(C)(C)O2 [tonabersat, N-[(3S,4S)-6-acetyl-3-hydroxy-2,2-dimethyl-3,4-dihydrochromen-4-yl]-3-chloro-4-fluorobenzamide]
RPE65 expression (mean fluorescence intensity relative to untreated group) (ARPE-19 cells [1]; ARPE-19, HG+Cyt insult plus tonabersat 100 μM, 72 h, comparison with HG+Cyt and untreated groups, listed as HG+Cyt+Ton): not being significantly different to either group; also recorded: no statistically significant difference
RPE65 expression decrease following HG+Cyt insult (immunolabelling images) (ARPE-19 cells [1]; ARPE-19, co-application of tonabersat, FIG. 2 qualitative): prevented
α-SMA to RPE65 expression ratio (ARPE-19 cells [2]; 24 h): 1.1
α-SMA expression (mean fluorescence intensity, compared to untreated levels) (ARPE-19 cells [2]; 72 h): 75.5±8.4%
α-SMA expression (mean fluorescence intensity, compared to untreated levels) (ARPE-19 cells [2]; 72 h, listed as HG+Cyt+Ton): significantly reduced
α-SMA to RPE65 expression ratio (ARPE-19 cells [2]; 72 h): 0.8
α-SMA expression increase and striation following HG+Cyt insult (immunolabelling images) (ARPE-19 cells [2]; ARPE-19, addition of tonabersat, FIG. 2 qualitative): changes were prevented
scrape wound percentage closure (ARPE-19 cells [3]; 4 h post-scrape vs 0 h scrape width): no significant difference in percentage closure
scrape wound percentage closure (ARPE-19 cells [3]; 24 h post-scrape relative to 0 h width): 33.8±9.6%
scrape wound percentage closure (ARPE-19 cells [3]; 24 h post-scrape relative to 0 h width, listed as HG+Cyt+Ton): reduction in scrape wound closure
ZO-1 cell membrane localization (ARPE-19 cells [4]): maintained ZO-1 localization at the cell membrane; also recorded: prevented loss of ZO-1 cell membrane localization
Cx43 cell membrane localization (ARPE-19 cells [5]): maintained Cx43 localization
TEER relative to 0 h value (ARPE-19 cells [6]; 24 h): 99.5±1.2%
TEER relative to 0 h value (ARPE-19 cells [6]; 48 h): 114.9±3.2%
TEER relative to 0 h value (ARPE-19 cells [6]; 72 h): 97.7±1.1%
HG+Cyt induced TGF-β2 release (ARPE-19 cells [7]; 24 h): prevented HG+Cyt induced TGF-β2 release back to untreated levels
TGF-β1 and 2 levels (ARPE-19 cells [7]; 72 h): no significant differences between all groups
